Article PMC10142183, “Optimization of polymyxin B regimens for the treatment of carbapenem-resistant organism nosocomial pneumonia: a real-world prospective study” (Critical Care, 2023)
Positions of bridges follow the written chain, without caps; N, C: chain ends. Non-standard residues stand in square brackets, D forms with d. Residues, ends and D or L forms follow the SMILES beside them. *: point of attachment. X1 = CC[C@H](C)CCCCC(=O)*; Dab = NCC[C@H](N)C(=O)O

What was measured:
[1] = Population PK model and plasma exposure in critically ill patients (HPLC-MS/MS, Phoenix NLME); assay type: in vivo, human; parameters: AUCss, 24h: concentration or dose not given beside the values
Procedure: Polymyxin B was given to all patients empirically as a loading dose of 100–200 mg followed by a maintenance dose of 40–100 mg every 12 h for at least 3 days. The infusion time was at least 1 h. Aerosol delivery of polymyxin B (25 mg or 50 mg twice daily) was using a vibrating mesh nebulizer, synchronized with the inspiratory cycle of the ventilator. Two to six blood samples (2 mL) were randomly collected immediately before the seventh dose of polymyxin B and at 0, 1, 2, 4, 6, 8 and 10 h after the end of infusion. The supernatant was immediately stored at − 80 °C until analysis.
An established high-performance liquid chromatography-tandem mass spectrometry (HPLC–MS/MS) was used to measure the concentrations of polymyxin B1 and polymyxin B2 as described previously by the authors’ laboratory (The total concentration of polymyxin B = [polymyxin B1 concentration/polymyxin B1 molecular + polymyxin B2 concentration/polymyxin B2 molecular]*total polymyxin B molecular). The interday precision was < 12%, the intraday precision was < 9%, and the accuracy ranged from 96.1 to 110.4%. The limit of quantification (LLOD) was 0.03 mg/L, and all of the polymyxin B concentrations detected were over LLOD.
The Phoenix NLME program (version 8.1. Pharsight, A Certara Company, USA) with the method of first-order conditional estimation-extended least square method (FOCE-ELS) was used to develop the population PK model by analyzing polymyxin B concentration. The objective function value (OFV), goodness-of-fit plots and the reasonable of population PK parameters were used to selection of the structure model. The stepwise covariate modeling (SCM) approach was used to test the covariate model in this analysis; age, sex, body weight, alanine aminotransferase (ALT), aspartate aminotransferase (AST), total bilirubin (TBIL), direct bilirubin (DBIL), serum albumin (ALB) and CrCL were evaluated as the covariates. The SCM consists of a forward selection step (the criterion is p < 0.05 for ΔOFV decreased ≥ 3.84) and a backward elimination step (the criterion is p < 0.001 for ΔOFV increased ≥ 10.83). In addition, the goodness-of-fit plots were used to assess the validity of the population PK model, the prediction-corrected visual predictive check (pcVPC) was used to assess the predictive performance of the key models. The bootstrap method was used to assess the accuracy.
The PK/PD indices included AUCss,24 h, AUCss,24 h/MIC, the peak and trough concentration at steady state (Cmax,ss and Cmin,ss), Cmax,ss /MIC and Cmin,ss /MIC. AUCss,24 h, Cmax,ss and Cmin,ss were calculated based on the empirical Bayesian (EBEs). For those patients with more than one baseline pathogen, AUCss,24 h/MIC, Cmax,ss /MIC and Cmin,ss /MIC evaluations were based on the pathogen with the highest MIC value.

[2] = critically ill patients; weight-based regimen 1.25-1.5 mg/kg every 12 h; cited from earlier work
Procedure: At present, weight-based dosing regimen (1.25–1.5 mg/kg every 12 h) is recommended for polymyxin B [17, 18]. However, polymyxin B concentration varies widely in critically ill patients with this regimen, and almost 30% patients cannot achieve AUCss,24 h values within the target therapeutic window. […] Due to these inconsistent results, further research is needed to improve the charac ...

CRO nosocomial pneumonia [3] = test: PK/PD analysis for clinical efficacy in CRO nosocomial pneumonia; assay type: in vivo, human
Procedure: This prospective study was conducted at two intensive care units (ICU) between January 2020 and December 2021 in the Second Xiangya Hospital of Central South University (Changsha, China). […] The exclusion criteria were as follows: (a) concomitant lung cancer with obstructive pneumonitis or cystic fibrosis; (b) solid organ transplantation; (c) hematologic malignancies and hematopoietic cell transplant recipients; (d) receiving renal replacement therapy. HAP was defined according to the 2016 clinical practice guidelines of the Infectious Diseases Society of America and the American Thoracic Society. Determination of carbapenem susceptibility of CRO was followed by the European Committee on Antimicrobial Susceptibility Testing (EUCAST). Updated EUCAST Clinical Breakpoints of polymyxin B were sensitivity (S ≤ 2 mg/L) and drug resistance (R > 2 mg/L). The antimicrobial susceptibility testing was performed using the VITEK-2 Compact system with VITEK cards (0.5–16 mg/L for colistin) (bioMérieux, France). The following information was extracted from the electronic medical records: demographic and co-morbidity profiles, clinical and microbiological features of the infections, and the antimicrobial treatment regimens. Creatinine clearance (CrCL) was calculated using the Cockcroft–Gault equation. The endpoint was clinical efficacy and 30-day all-cause mortality. Assessment of clinical efficacy was conducted at the end of treatment, and 30-day mortality was recorded from the start of polymyxin B treatment. This prospective study was approved by the Ethics Committee of the Second Xiangya Hospital, Central South University. Informed consent was obtained from all patients or legal representatives of the patients (No. ChiCTR1900022231).
Clinical outcomes were classified as clinical success (CS) and clinical failure (CF), and were assessed by two physicians. CS was defined as a composite of survival; hemodynamic stability; body temperature < 38 °C, improved biochemistry indicators of infection; stable or improved PaO2/FiO2 ratio. Additionally, for patients with bacteremia, microbiological cure (no growth of the initial isolate in blood cultures) must be achieved by the end of the treatment. […] 30-day all-cause mortality was recorded from the start of polymyxin B treatment.
Variables potentially related to clinical efficacy and 30-day all-cause mortality were assessed, including: demographics, co-morbidities, clinical conditions, dosage regimen and concentration of polymyxin B. To develop receiver operating characteristic (ROC) curves, the PK/PD indices AUCss,24 h/MIC, Cmax,ss/MIC and Cmin,ss/MIC were used as predictors of clinical efficacy. The area under the diagnostic curve (AUCROC) was calculated to evaluate the correlation of the above parameters with clinical efficacy and 30-day all-cause mortality. Youden index of the ROC curves was calculated by "sensitivity + specificity-1", and the values corresponding to the maximum Youden index is the optimal cutoff point value of the PK/PD indices.
Statistical analysis was performed with SPSS 24.0 (SPSS, IBM Company, Chicago, IL, USA) software. Continuous variables are presented as the mean ± standard deviation (SD) if normally distributed and were compared using Student’s t tests. The median and interquartile range (IQR) are presented for abnormally distributed data, and the Mann–Whitney U test was used. Categorical variables are expressed as counts and percentages, and the chi-square test or Fisher’s exact test was used. Spearman’s rank correlation coefficient (r) was used to analyze the correlation between Cmin,ss, Cmax,ss and AUCss,24 h. Univariate analysis was performed for all variables to identify possible predictors for clinical efficacy. Variables with a p < 0.05 were entered into the multivariate logistic regression models. […]

CRO nosocomial pneumonia [4] = test: 30-day all-cause mortality in CRO nosocomial pneumonia; assay type: in vivo, human; settings: Cox regression, p = 0.001
Procedure: This prospective study was conducted at two intensive care units (ICU) between January 2020 and December 2021 in the Second Xiangya Hospital of Central South University (Changsha, China). […] The exclusion criteria were as follows: (a) concomitant lung cancer with obstructive pneumonitis or cystic fibrosis; (b) solid organ transplantation; (c) hematologic malignancies and hematopoietic cell transplant recipients; (d) receiving renal replacement therapy. HAP was defined according to the 2016 clinical practice guidelines of the Infectious Diseases Society of America and the American Thoracic Society. Determination of carbapenem susceptibility of CRO was followed by the European Committee on Antimicrobial Susceptibility Testing (EUCAST). […] Creatinine clearance (CrCL) was calculated using the Cockcroft–Gault equation. […] Assessment of clinical efficacy was conducted at the end of treatment, and 30-day mortality was recorded from the start of polymyxin B treatment. […]
Clinical outcomes were classified as clinical success (CS) and clinical failure (CF), and were assessed by two physicians. […] 30-day all-cause mortality was recorded from the start of polymyxin B treatment. […]
Statistical analysis was performed with SPSS 24.0 (SPSS, IBM Company, Chicago, IL, USA) software. […] Categorical variables are expressed as counts and percentages, and the chi-square test or Fisher’s exact test was used. […]

[5] = 30-day non-survival group (n = 28), median (IQR)
[6] = 30-day survival group (n = 77), median (IQR)
[7] = clinical failure group (n = 35), median (IQR)
[8] = clinical success group (n = 70), median (IQR)
[9] = final model estimate, two-compartment population PK, 105 patients, 295 plasma concentrations
[10] = median of 105 patients, plasma, empirical Bayesian estimates

CC[C@H](C)CCCCC(=O)N[C@@H](CCN)C(=O)N[C@H](C(=O)N[C@@H](CCN)C(=O)N[C@H]1CCNC(=O)[C@H]([C@@H](C)O)NC(=O)[C@H](CCN)NC(=O)[C@H](CCN)NC(=O)[C@H](CC(C)C)NC(=O)[C@@H](Cc2ccccc2)NC(=O)[C@H](CCN)NC1=O)[C@@H](C)O [polymyxin B] (X1-[Dab]T[Dab][Dab][Dab][dF]L[Dab][Dab]T; lactam 4-C)
AUCss, 24h [1, 5]: 62.1 (46.3, 83.2) mg·h/L
Cmax,ss [1, 5]: 5.4 (4.6, 6.1) μg/mL
Cmin,ss [1, 5]: 2.1 (1.6, 2.6) μg/mL
Cmin,ss /MIC [1, 5]: 2.2 (1.6, 2.7)
AUCss, 24h [1, 6]: 69.4 (58.5, 86.9) mg·h/L
Cmax,ss [1, 6]: 6.5 (5.8, 7.2) μg/mL
Cmin,ss [1, 6]: 2.2 (1.9, 2.5) μg/mL
Cmin,ss /MIC [1, 6]: 2.2 (1.9, 2.5)
CL (clearance in central compartment) ([1]; bootstrap method estimate): 1.56 L/h
CLd (clearance between central and peripheral compartment) ([1]; bootstrap method estimate): 2.41 L/h
Vc (volume distribution in central compartment) ([1]; bootstrap method estimate): 12.5 L
Vp (volume in peripheral compartment) ([1]; bootstrap method estimate): 29.9 L
AUCss, 24h [1, 7]: 60.6 (43.5, 66.6) mg·h/L
Cmax,ss [1, 7]: 5.1 (3.7, 6.9) μg/mL
Cmin,ss [1, 7]: 1.8 (1.0, 2.5) μg/mL
Cmin,ss /MIC [1, 7]: 1.7 (0.9, 1.9)
AUCss, 24h [1, 8]: 78.6 (62.4, 84.2) mg·h/L
Cmax,ss [1, 8]: 6.8 (5.0, 7.6) μg/mL
Cmin,ss [1, 8]: 2.4 (1.6, 2.8) μg/mL
Cmin,ss /MIC [1, 8]: 2.4 (1.4, 3.1)
CLd (clearance between central and peripheral compartment) [1, 9]: 2.41 L/h
Vc (volume distribution in central compartment) [1, 9]: 12.5 L
Vp (volume in peripheral compartment) [1, 9]: 29.9 L
CL (clearance in central compartment) ([1]; final model estimate, two-compartment population PK, 105 patients, 295 plasma concentrations, IV 100-200 mg loading then 40-100 mg every 12 h): 1.56 L/h
AUCss, 24h [1, 10]: 67.2 mg·h/L
Cmax,ss (peak concentration at steady state) [1, 10]: 5900 ng/mL
Cmin,ss (trough concentration at steady state) [1, 10]: 1900 ng/mL
patients who cannot achieve AUCss,24 h values within the target therapeutic window [2]: ~30%
OR of combination of inhaled polymyxin B for clinical efficacy (CRO nosocomial pneumonia [3]; 51 patients with AUCss,24 h/MIC < 66.9, 95% CI 0.06-0.79, p = 0.022): 0.21
OR of combination of inhaled polymyxin B for clinical efficacy (CRO nosocomial pneumonia [3]; 54 patients with AUCss,24 h/MIC ≥ 66.9, 95% CI 0.09-2.46, p = 0.365): 0.46
AOR of dose normalized-AUCss,24 h/MIC for efficacy (CRO nosocomial pneumonia [3]; Covariate-Adjusted Residuals method, 95% CI 0.38-1.01, p = 0.056): 0.62
clinical success rate (CRO nosocomial pneumonia [3]; IV + IH group, AUCss,24 h/MIC ≥ 66.9 (54 patients)): 90.0%
clinical success rate (CRO nosocomial pneumonia [3]; IV group, AUCss,24 h/MIC < 66.9 (51 patients)): 35.1%
clinical success rate (CRO nosocomial pneumonia [3]; IV group, AUCss,24 h/MIC ≥ 66.9 (54 patients)): 82.3%
favorable clinical outcomes in pneumonia patients with AUCss,24 h > 66.9 (CRO nosocomial pneumonia [3]; MIC mostly 1 mg/L): 85.2%
optimal cutoff point value of AUCss,24 h/MIC for clinical efficacy (CRO nosocomial pneumonia [3]; ROC curve, largest Youden index, patients receiving combination therapy): 66.9
clinical success rate (CRO nosocomial pneumonia [3]; all 105 patients (70/105), assessed at end of treatment, combination therapy with another antimicrobial): 66.7%
clinical success rate (CRO nosocomial pneumonia [3]; intravenous plus inhaled (IV + IH) group, AUCss,24 h/MIC < 66.9 (51 patients)): 71.4%
Adjusted OR (95% CI) of AUCss,24 h/MIC for clinical efficacy (CRO nosocomial pneumonia [3]; multivariate logistic regression, p = 0.009): 0.97 (0.95–0.99)
Adjusted OR (95% CI) of daily dose (mg) for clinical efficacy (CRO nosocomial pneumonia [3]; multivariate logistic regression, p = 0.028, listed as PMB): 0.98 (0.97–0.99)
Adjusted OR (95% CI) of combination of inhaled polymyxin B for clinical efficacy (CRO nosocomial pneumonia [3]; multivariate logistic regression, p = 0.039, aerosol 25 or 50 mg twice daily, listed as PMB): 0.32 (0.11–0.94)
HR (95% CI) of PMB treatment duration (day) for 30-day mortality (CRO nosocomial pneumonia [4]): 0.67 (0.53-0.85)
